Laboratory results as given in publication PMC11243320, “Tailoring Fibroblast-Activation Protein Targeting for Theranostics: A Comparative Preclinical Evaluation of the ^68Ga- and ^177Lu-Labeled Monomeric and Dimeric Fibroblast-Activation Protein Inhibitors DOTA.SA.FAPi and DOTAGA.(SA.FAPi)2” (Molecules, 2024).

Tested on: CAFs
Experiment: Internalization studies in CAFs
Assay type: cell-based, human
Conditions: 37 °C
Protocol: For saturation studies, CAFs were incubated with increasing concentrations of the radiotracers (0.1–10 nM). For internalization studies, approximately 2.5 pmol of the radiotracers were added to CAFs followed by incubation for 15, 30, 60, 90, 120, 180 and 240 min for the ^68Ga-labeled or 30, 60, 120, 240 and 360 min for the ^177Lu-labeled radiotracers at 37 °C, 5% CO2. For the externalization studies, approximately 2.5 pmol of the ^177Lu-labeled radiotracers were added to CAFs followed by incubation for 2 h at 37 °C, 5% CO2. Afterward, the amount of the externalized activity from the CAFs was determined at 0, 10, 20, 30, 60, 120, 240, and 1440 min (Supplemental Data).
Saturation Binding Studies […]
for 0.5, 1, 2, 4 and 6 h at 37 °C, 5% CO2 for the 177Lu-labeled tracers. […] The radioactivity of the culture medium, the receptor bound, and the internal-ized fractions were measured in a γ-counter. […]
The radioactivity of the culture medium, the receptor bound , the internalized and the externalized fractions were measured in a γ -counter. The externalized fraction of radioactivity was ex-pressed as the percentage of the total internalized amount. […]

Row | Structure (SMILES) | Total cell associated uptake (% of total applied radioactivity) (4 h) [%] | Total cell associated uptake (% of total applied radioactivity) (6 h) [%]
1 | N#C[C@@H]1CC(F)(F)CN1C(=O)CNC(=O)c1ccnc2ccc(OCCCCNc3c(NCCNC(=O)CN4CCN(CC(=O)[O-])CCN(CC(=O)[O-])CCN(CC(=O)[O-])CC4)c(=O)c3=O)cc12.[68Ga+3] [[^68Ga]Ga-DOTA.SA.FAPi] | 21.9 ± 1.2 | 
2 | N#C[C@@H]1CC(F)(F)CN1C(=O)CNC(=O)c1ccnc2ccc(OCCCCNc3c(NCCNC(=O)CN4CCN(CC(=O)[O-])CCN(CC(=O)[O-])CCN(CC(=O)[O-])CC4)c(=O)c3=O)cc12.[177Lu+3] [[^177Lu]Lu-DOTA.SA.FAPi] |  | 21.1 ± 1.1
